The values that follow come from patent US20260258032A1, “TYROSINE KINASE 2 INHIBITORS AND USES THEREOF” (BIOGEN MA INC., priority 2022, published 2026).

The subject of experiment [1] is Tyk2 kinase activity on STAT4. The experiment can be described thus: pSTAT4 cell assay (MSD, NK92 cells). Type of experiment: cell-based. The following applies: compounds 1 hr. In outline: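 Serum-starved NK92 cells were preincubated 1 hr with compound (10-point, four-fold dilutions from 10 μM), then stimulated with 30 ng/mL IL2 for 15 minutes. Lysates were read on an MSD plate assay using anti-STAT4 antibodies, and IC50 came from a 4-parameter logistic fit of normalized percent activity.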

The target of experiment [2] is T1, JH2 domain of human Tyk2 (Homo sapiens, UniProt P29597).
T1 construct: 10×His-tagged TYK2 JH2 domain (amino acid 575-876)
In words: JH2 biochemical assay (TR-FRET probe displacement). It counts as binding. In outline: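 10×His-tagged human TYK2 JH2 (aa 575-876, 2 nM) incubated 60 min with 2 nM fluorescent probe, 0.1 nM Tb anti-His antibody and compound (10-point 3-fold series from […] top). TR-FRET 520/495 nm ratio, falling with probe displacement, normalized and fitted to a 4-parameter logistic for IC50.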
A general note: Time-resolved FRET reads energy transfer from a long-lived donor to a nearby acceptor.

Experiment [3] relates to JAK1 kinase activity on STAT3. In words: pSTAT3 cell assay (MSD, TF1 cells, IL-6 stimulated). It counts as cell-based. The following applies: Homo sapiens, TF-1, compounds 1 hour, 30 ng/mL IL-6 for 15 minutes. As for the experimental part:
The inhibitory potency of compounds of the disclosure against the JAK1 kinase activity on STAT3 was evaluated using an MSD-platform plate-based assay format. TF1 cells natively expressing STAT3 and JAK1 were serum-starved to reduce background phosphorylation levels, then cells were treated with compounds of the disclosure for 1 hour with a 10-point four-fold dilution series starting at 10 μM. Cells were then stimulated with 30 ng/mL interleukin 6 (IL-6) for 15 minutes. Cells were lysed and pSTAT3 levels were quantitated using an MSD plate-based assay with anti-STAT3 antibodies. The data were normalized and the percent activity versus log concentration of compound was fitted with a 4-parameter logistic model to generate IC50 curves.

In experiment [4] the test system is JAK2 kinase activity on STAT5. The experiment can be described thus: pSTAT5 cell assay (MSD, TF1 cells, IL-3 stimulated). The following applies: Homo sapiens, TF-1, compounds 1 hour, 30 ng/mL IL-3 for 15 minutes. Type of experiment: cell-based. How it is done: Compounds of the disclosure were assessed for their ability to inhibit the JAK2 kinase activity on STAT5 utilizing an MSD-platform plate-based assay format. TF1 cells natively expressing STAT5 and JAK2 were serum-starved to reduce background phosphorylation levels, then cells were treated with compounds of disclosure for 1 hour with a 10-point four-fold dilution series starting at 10 μM. Cells were then stimulated with 30 ng/mL IL-3 for 15 minutes. Cells were then lysed and pSTAT5 levels were quantitated using an MSD plate-based assay with anti-STAT5 antibodies. The data were normalized and the percent activity versus log concentration of compound was fitted with a 4-parameter logistic model to generate a curve and an IC50 value.

Where [5] appears, read: TR-FRET probe displacement, JH2 domain of human Tyk2.

Counter-ions that a name gives are not always drawn.

T1 sequence (P29597 575-876): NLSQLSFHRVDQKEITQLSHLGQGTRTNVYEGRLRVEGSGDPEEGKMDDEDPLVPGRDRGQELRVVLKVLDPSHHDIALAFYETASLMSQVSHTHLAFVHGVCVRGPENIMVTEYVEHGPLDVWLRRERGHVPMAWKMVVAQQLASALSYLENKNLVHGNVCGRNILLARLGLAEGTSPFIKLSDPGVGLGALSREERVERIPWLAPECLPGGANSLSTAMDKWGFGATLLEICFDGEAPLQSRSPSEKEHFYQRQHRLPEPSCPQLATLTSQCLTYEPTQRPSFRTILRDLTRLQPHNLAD

What is called IC50 is the midpoint of a concentration-inhibition curve. With `COc1cc(N2CC3(CC3)c3cnc(NC(C)=O)cc32)nc(C(C)(F)F)n1` [Example 1, N-(1′-(2-(1,1-difluoroethyl)-6-methoxypyrimidin-4-yl)-1′,2′-dihydrospiro[cyclopropane-1,3′-pyrrolo[3,2-c]pyridin]-6′-yl)acetamide], the IC50 in experiment [1] (stimulated 15 minutes) is 100 to 1000 nM; in experiment [2] (JH2 biochemical assay), not above 10 nM; in experiment [3], not below 1000 nM; in experiment [4] it was not below 1000 nM.

Regarding `COc1cc(C(C)(F)F)nc(N2CC3(CC3)c3cnc(NC(C)=O)cc32)n1` [Example 2, N-(1′-(4-(1,1-difluoroethyl)-6-methoxypyrimidin-2-yl)-1′,2′-dihydrospiro[cyclopropane-1,3′-pyrrolo[3,2-c]pyridin]-6′-yl)acetamide], the half-maximal inhibitory concentration (IC50) in experiment [1] (stimulated 15 minutes) was 100 to 1000 nM; in experiment [2] (JH2 biochemical assay), not above 10 nM; in experiment [3], not below 1000 nM; in experiment [4], not below 1000 nM.

As for `COc1cc(N2CC3(CC3)c3cnc(NC(C)=O)cc32)nc(C(C)(F)F)c1` [Example 9, N-(1′-(6-(1,1-difluoroethyl)-4-methoxypyridin-2-yl)-1′,2′-dihydrospiro[cyclopropane-1,3′-pyrrolo[3,2-c]pyridin]-6′-yl)acetamide], the IC50 in experiment [1] (stimulated 15 minutes) is 10 to 100 nM; in experiment [2] (JH2 biochemical assay) it was not above 10 nM; in experiment [3], not below 1000 nM; in experiment [4], not below 1000 nM.

Turning to `CNc1cc(N2CC3(CC3)c3cnc(NC(C)=O)cc32)nc(C(C)(F)F)n1` [Example 10, N-(1′-(2-(1,1-difluoroethyl)-6-(methylamino)pyrimidin-4-yl)-1′,2′-dihydrospiro[cyclopropane-1,3′-pyrrolo[3,2-c]pyridin]-6′-yl)acetamide], the IC50 in experiment [1] (stimulated 15 minutes) is 10 to 100 nM; in experiment [2] (JH2 biochemical assay), not above 10 nM; in experiment [3], not below 1000 nM; in experiment [4] it was not below 1000 nM.

For the compound `CC(=O)Nc1cc2c(cn1)C1(CCN(C)CC1)CN2c1cccc(C(C)(F)F)n1` [Example 276, N-(1′-(6-(1,1-difluoroethyl)pyridin-2-yl)-1-methyl-1′,2′-dihydrospiro[piperidine-4,3′-pyrrolo[3,2-c]pyridin]-6′-yl)acetamide trifluoroacetate], the IC50 in experiment [2] (JH2 biochemical assay), in experiment [3] and in experiment [4] was not below 1000 nM throughout.

In the case of `CC(=O)Nc1cc2c(cn1)C1(CC1)CN2c1cc(C(C)(C)F)nc(C(C)(F)F)n1` [Example 398, N-(1′-(2-(1,1-difluoroethyl)-6-(2-fluoropropan-2-yl)pyrimidin-4-yl)-1′,2′-dihydrospiro[cyclopropane-1,3′-pyrrolo[3,2-c]pyridin]-6′-yl)acetamide], the values for the IC50 in experiment [1] (then stimulated 15 minutes) and in experiment [2] (setting [5]) were 10 to 100 nM and not above 10 nM, respectively.

With `CC(=O)Nc1cc2c(cn1)C1(CC1)CN2c1cc(C(C)(C)O)nc(C(C)(F)F)n1` [Example 399, N-(1′-(2-(1,1-difluoroethyl)-6-(2-hydroxypropan-2-yl)pyrimidin-4-yl)-1′,2′-dihydrospiro[cyclopropane-1,3′-pyrrolo[3,2-c]pyridin]-6′-yl)acetamide], the half-inhibitory concentration (IC50) in experiment [1] (then stimulated 15 minutes) was 10 to 100 nM; in experiment [2] (setting [5]), not above 10 nM.

With `CC(=O)Nc1cc2c(cn1)C1(CC1)CN2c1cc(C(C)F)nc(C(C)(F)F)n1` (stereo not drawn) [Example 400, N-(1′-(2-(1,1-difluoroethyl)-6-(1-fluoroethyl)pyrimidin-4-yl)-1′,2′-dihydrospiro[cyclopropane-1,3′-pyrrolo[3,2-c]pyridin]-6′-yl)acetamide], the IC50 in experiment [1] (then stimulated 15 minutes) was 10 to 100 nM; in experiment [2] (setting [5]) it was not above 10 nM.

For the compound `COCC(F)(F)c1nc(C)cc(N2CC3(CC3)c3cnc(NC(C)=O)cc32)n1` [Example 401, N-(1′-(2-(1,1-difluoro-2-methoxyethyl)-6-methylpyrimidin-4-yl)-1′,2′-dihydrospiro[cyclopropane-1,3′-pyrrolo[3,2-c]pyridin]-6′-yl)acetamide trifluoroacetate], the results for the half-inhibitory concentration (IC50) in experiment [1] (then stimulated 15 minutes) and in experiment [2] (setting [5]) were not below 1000 nM and 10 to 100 nM, respectively.

Regarding `CC(=O)Nc1cc2c(cn1)C1(CC1)CN2c1cc(C)cc(N2CC[C@H](C#N)C2)n1` [Example 402, (S)-N-(1′-(6-(3-cyanopyrrolidin-1-yl)-4-methylpyridin-2-yl)-1′,2′-dihydrospiro[cyclopropane-1,3′-pyrrolo[3,2-c]pyridin]-6′-yl)acetamide], the IC50 was not below 1000 nM in experiment [1] (then stimulated 15 minutes) and 10 to 100 nM in experiment [2] (setting [5]).

On to `CC(=O)Nc1cc2c(cn1)C1(CC1)CN2c1cc(C)cc(N2CC[C@@H](C#N)C2)n1` [Example 403, (R)-N-(1′-(6-(3-cyanopyrrolidin-1-yl)-4-methylpyridin-2-yl)-1′,2′-dihydrospiro[cyclopropane-1,3′-pyrrolo[3,2-c]pyridin]-6′-yl)acetamide], for which the IC50 in experiment [1] (then stimulated 15 minutes) was 100 to 1000 nM; in experiment [2] (setting [5]), not above 10 nM.

With `CC(=O)Nc1cc2c(cn1)C1(CC1)CN2c1cc(C)cc(N2CCC(C)(C#N)C2)n1` (stereo not drawn) [Example 404, N-(1′-(6-(3-cyano-3-methylpyrrolidin-1-yl)-4-methylpyridin-2-yl)-1′,2′-dihydrospiro[cyclopropane-1,3′-pyrrolo[3,2-c]pyridin]-6′-yl)acetamide], the half-maximal inhibitory concentration (IC50) is not below 1000 nM in experiment [1] (then stimulated 15 minutes) and 10 to 100 nM in experiment [2] (setting [5]).

On to `CC(=O)Nc1cc2c(cn1)C1(CC1)CN2c1cc(C)cc(N2CCC(C)(O)C2)n1` (stereo not drawn) [Example 405, N-(1′-(6-(3-hydroxy-3-methylpyrrolidin-1-yl)-4-methylpyridin-2-yl)-1′,2′-dihydrospiro[cyclopropane-1,3′-pyrrolo[3,2-c]pyridin]-6′-yl)acetamide trifluoroacetate], for which the results for the IC50 in experiment [1] (then stimulated 15 minutes) and in experiment [2] (setting [5]) were not below 1000 nM and 100 to 1000 nM, respectively.

In the case of `CC(=O)Nc1cc2c(cn1)C1(CC1)CN2c1cc(C)cc(N2CCN(CCO)CC2)n1` [Example 406, N-(1′-(6-(4-(2-hydroxyethyl)piperazin-1-yl)-4-methylpyridin-2-yl)-1′,2′-dihydrospiro[cyclopropane-1,3′-pyrrolo[3,2-c]pyridin]-6′-yl)acetamide], the figures for the IC50 in experiment [1] (then stimulated 15 minutes) and in experiment [2] (setting [5]) were not below 1000 nM and 100 to 1000 nM, respectively.

Turning to `CC(=O)Nc1cc2c(cn1)C1(CC1)CN2c1cc(C)nc(N2CC[C@@H](C#N)C2)n1` [Example 407, (R)-N-(1′-(2-(3-cyanopyrrolidin-1-yl)-6-methylpyrimidin-4-yl)-1′,2′-dihydrospiro[cyclopropane-1,3′-pyrrolo[3,2-c]pyridin]-6′-yl)acetamide], the IC50 in experiment [1] (then stimulated 15 minutes) was 100 to 1000 nM; in experiment [2] (setting [5]), not above 10 nM.

On to `CC(=O)Nc1cc2c(cn1)C1(CC1)CN2c1cc(C)nc(N2CC[C@H](C#N)C2)n1` [Example 408, (S)-N-(1′-(2-(3-cyanopyrrolidin-1-yl)-6-methylpyrimidin-4-yl)-1′,2′-dihydrospiro[cyclopropane-1,3′-pyrrolo[3,2-c]pyridin]-6′-yl)acetamide], for which the IC50 in experiment [1] (then stimulated 15 minutes) fell in the range of 100 to 1000 nM; in experiment [2] (setting [5]), 10 to 100 nM.

As for `CC(=O)Nc1cc2c(cn1)C1(CC1)CN2c1cc(C)nc(N2CCC(C)(C#N)C2)n1` (stereo not drawn) [Example 409, N-(1′-(2-(3-cyano-3-methylpyrrolidin-1-yl)-6-methylpyrimidin-4-yl)-1′,2′-dihydrospiro[cyclopropane-1,3′-pyrrolo[3,2-c]pyridin]-6′-yl)acetamide], the IC50 was not below 1000 nM in experiment [1] (then stimulated 15 minutes) and 10 to 100 nM in experiment [2] (setting [5]).

As to `CC(=O)Nc1cc2c(cn1)C1(CC1)CN2c1cc(C)nc(N2CC(CC(C)C)C2)n1` [Example 410, N-(1′-(2-(3-isobutylazetidin-1-yl)-6-methylpyrimidin-4-yl)-1′,2′-dihydrospiro[cyclopropane-1,3′-pyrrolo[3,2-c]pyridin]-6′-yl)acetamide trifluoroacetate], the results for the IC50 in experiment [1] (then stimulated 15 minutes) and in experiment [2] (setting [5]) were 100 to 1000 nM and not below 1000 nM, respectively.
